ChEMBL document CHEMBL1140465, “The design and preliminary structure-activity relationship studies of benzotriazines as potent inhibitors of Abl and Abl-T315I enzymes” (Bioorg Med Chem Lett, 2007)
Each block holds one compound with its values, some of them ahead of it. Activity calls are given as the source filed them. The rule behind the calls is not given here.

Assays:
BaF3 [1] = test: Apoptosis inducing activity in Ba/F3 cells assessed as caspase 3 activation after 4 hrs; type: functional, cell-based; conditions: Mus musculus
BaF3 [2] = test: Apoptosis inducing activity in Ba/F3 cells assessed as induction of DNA fragmentation at 2 uM after 24 hrs; type: functional, cell-based; conditions: Mus musculus
Bcr-Abl [3] = test: Apoptosis inducing activity in Bcr-Abl cells assessed as induction of DNA fragmentation at 2 uM after 24 hrs; type: functional, cell-based; conditions: Homo sapiens
Homo sapiens [4] = organism: Homo sapiens; test: Apoptosis inducing activity in Bcr-Abl-T315I cells assessed as induction of DNA fragmentation at 2 uM after 24 hrs; type: functional, cell-based
BaF3 [5] = test: Blockade of full length human Bcr-Abl expressed in mouse Ba/F3 cells assessed as inhibition of STAT5 phosphorylation; type: cell-based
Homo sapiens [6] = organism: Homo sapiens; test: Apoptosis inducing effect in Bcr-Abl-T315I cells assessed as caspase 3 activation after 4 hrs; type: functional, cell-based
Bcr-Abl [7] = test: Apoptosis inducing activity in Bcr-Abl cells assessed as caspase 3 activation after 4 hrs; type: functional, cell-based; conditions: Homo sapiens
BaF3 [8] = test: Blockade of Bcr-Abl-T315I mutant expressed in mouse Ba/F3 cells assessed as inhibition of […] phosphorylation; type: cell-based; conditions: Homo sapiens
[9] = target: Proto-oncogene tyrosine-protein kinase Src (Homo sapiens, UniProt P12931); test: Inhibition of Src
Proto-oncogene tyrosine-protein kinase Src, sequence (P12931 2-536 limits assumed): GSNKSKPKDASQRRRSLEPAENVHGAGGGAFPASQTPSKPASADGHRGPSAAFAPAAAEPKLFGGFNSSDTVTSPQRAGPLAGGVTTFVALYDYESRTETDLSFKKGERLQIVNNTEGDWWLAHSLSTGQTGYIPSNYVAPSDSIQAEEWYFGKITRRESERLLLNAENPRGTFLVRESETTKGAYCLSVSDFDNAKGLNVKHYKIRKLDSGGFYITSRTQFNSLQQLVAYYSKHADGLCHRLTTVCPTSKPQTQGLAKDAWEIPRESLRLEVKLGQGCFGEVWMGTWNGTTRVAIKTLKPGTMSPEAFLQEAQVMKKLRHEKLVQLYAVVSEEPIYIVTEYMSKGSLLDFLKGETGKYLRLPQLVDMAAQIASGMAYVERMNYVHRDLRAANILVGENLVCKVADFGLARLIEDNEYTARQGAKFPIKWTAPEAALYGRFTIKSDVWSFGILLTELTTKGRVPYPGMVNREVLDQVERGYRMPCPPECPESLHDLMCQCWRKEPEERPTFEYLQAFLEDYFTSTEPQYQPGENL

[10] = target: Tyrosine-protein kinase ABL1 (Homo sapiens, UniProt P00519)
[11] = target: Tyrosine-protein kinase ABL1 (Homo sapiens, UniProt P00519, T315I); test: Inhibition of Abl-T315I mutant

Compound: Cc1cc(-c2cc(O)ccc2Cl)cc2nnc(Nc3ccc(S(=O)(=O)NCCN4CCCC4)cc3)nc12
Activity (BaF3 [1]): inactive
Activity (BaF3 [2]): inactive
Activity (Bcr-Abl [3]): Active
Activity (Homo sapiens [4]): Active
Activity (BaF3 [5]): Active
Activity (Homo sapiens [6]): Active
Activity (Bcr-Abl [7]): Active
Activity (BaF3 [8]): Active

Ki [9]: 1.3 nM
Compound: Cc1cc(-c2cc(O)ccc2Cl)cc2nnc(Nc3ccc(OCCN4CCCC4)cc3)nc12

Ki [10]: 11 nM
Ki [11]: 4240 nM
Compound: Cc1cccc(C)c1-c1cc(C)c2nc(Nc3ccc(OCCN4CCCC4)cc3)nnc2c1
